In patent US7101980B2, “Derivatives, conjugates, and antibodies for detecting ecstasy-class analytes” (Roche Diagnostics Operations, Inc., priority 2002, dated 2006):

How the values were obtained:
Type in all cases: binding, mouse
antibody NEAMP 62.1 = assay: Cross-reactivity of NEAMP 62.1 with various drugs generated in a KIMS assay (ONLINE DAT II); conditions: antibody NEAMP 62.1 (immunogen 26, Q=KLH); KIMS immunoassay; MDEA as standard = 100
antibody NEAMP 48.2 = assay: Cross-reactivity of NEAMP 48.2 with various drugs generated in a KIMS assay (ONLINE DAT II); conditions: antibody NEAMP 48.2 (immunogen 26, Q=KLH); KIMS immunoassay; MDEA as standard = 100
antibody MDMA 2.1.1 = assay: Cross-reactivity of antibody MDMA 2.1.1 with various drugs (ELISA cross-reactivity assay); conditions: antibody MDMA 2.1.1 (elicited by immunogen 12, T=KLH); ED50 of standard / ED50 of drug x 100; MDMA = 100
Procedure: In Table 1, the abbreviation d-AMP represents d-amphetamine, the abbreviation d-MAMP represents d-methamphetamine, the abbreviation l-AMP represents l-amphetamine, the abbreviation l-MAMP represents l-methamphetamine, and the abbreviation MDPA represents 3,4-methylenedioxy-N-propylamphetamine.
Microplates were coated with […] methylenedioxymethamphetamine-BSA conjugate 12 (T=BSA, 12b) at a concentration of 1 mg/mL, and separate microplates were coated with either 100 μL methamphetamine-BSA (MAMP-BSA) 28 at a concentration of 1 mg/mL or with 100 μL of amphetamine-BSA (AMP-BSA) 30 at a concentration of 1 mg/mL.
The plates were incubated covered for 1 hour at 37° C. (humidified). The plates were then emptied and filled with a post-coat solution consisting of Tris buffer, 1% gelatin hydrolysate, 2% sucrose, and 0.17% TWEEN 20. (All reagents were from Sigma Chemical Co.) The plates were incubated covered for an additional 1 hour at 37° C. (humidified), after which they were washed with phosphate-buffered saline containing 0.1% TWEEN 20. The plates were then filled with a 2% sucrose solution in 0.15 M Tris, pH 7.2–7.4, briefly, then emptied and allowed to air dry at room temperature. When dried, the plates were packed in ZIPLOC (Dow Chemical Co.) plastic bags containing several desiccant pillows, sealed, and stored at 4° C. until use.
For the primary screening of the growing clones from the fusion plates, only the MDMA-BSA 12 (T=BSA, 12b) coated plates were used. Fifty microliters of PBS was added to each well, followed by 50 μL of the sample of culture media from wells on the fusion plate, diluted 1:10 in PBS. The plates were incubated covered for 1 hour at 37° C., then washed with PBS-TWEEN (0.1%). The wells were then filled with 100 μL of goat anti-mouse IgG-HRP conjugate (Zymed Labs), diluted in PBS-TWEEN, and the plates re-incubated for 1 hour. The plates were then washed again and 100 μL of K-Blue Substrate (Neogen Corp.) added. This was allowed to develop for 5–15 minutes, the reaction being stopped by the addition of 100 μL of 1 N HCl. Color was read by means of a microplate reader at 450 nm and collected by computer for analysis. […] Cells were subjected to limiting dilution subcloning, and upon appearance of growth, were tested by a secondary screen.
(§1) Supernatants were subjected to serial dilutions and re-tested in the ELISA screen above. The dilution providing for about a 50% reduction from the maximum OD was chosen for proceeding to cross-reactivity testing. This comprised repeating the preceding assay with the antibody at the chosen dilution and in the presence of varying concentrations of drugs.

antibody NEAMP 1.3 = assay: Cross-reactivity of NEAMP 1.3 with various drugs generated in an ELISA assay; conditions: antibody NEAMP 1.3 (immunogen 26, Q=KLH), MDEA as standard = 100
Procedure: Antibodies elicited by the immunogen 12, e.g., wherein T is KLH, show good response and specificity to ecstasy-class drugs. Furthermore, these antibodies show little or no cross-reactivity to related drugs. By determining the drug concentration that results in a 50% reduction in binding (ED50) of a standard, methamphetamine, dividing by the ED50 of each other drug, and then multiplying the result by 100, the percent cross-reactivity was calculated.
Tables 2, 3, and 4 show cross-reactivity data for the antibodies NEAMP 1.3, NEAMP 48.2, and NEAMP 62.1, which were generated in response to immunogen 26 of FIG. 2 wherein Q is KLH. By the procedure described above, using MDEA as a standard, the percent cross-reactivities shown in Tables 2, 3, and 4 were calculated.
Microplates were coated with 100 μL methamphetamine-BSA conjugate 28 (for screening for NEAMP 1.3) or 100 μL of MDEA-BSA conjugate 36 (for screening for NEAMP 48.2 and NEAMP 62.1), and separate microplates were coated with 100 μL N-ethylamphetamine-BSA 26 (Q=BSA, 26b) at 1 μg/mL in 0.1 M carbonate buffer, pH 9.5, for 1 hour at 37° C. (humidified). The plates were then emptied and filled with a post-coat solution containing Tris buffer, 1% gelatin hydrolysate, 2% sucrose, and 0.17% TWEEN 20. (All reagents were from Sigma Chemical Co.) The plates were incubated for an additional 1 hour at 37° C. (humidified), after which they were washed with phosphate-buffered saline containing 0.1% TWEEN 20. The plates were then filled with a 2% sucrose solution in 0.15 M Tris, pH 7.2–7.4, briefly, then emptied and allowed to air-dry at room temperature. When dried, the plates were packed in ZIPLOC bags containing several desiccant pillows, sealed, and stored at 4° C. until use.
When the growing clones were judged ready for testing, 25 μL of supernatant from the wells were taken and transferred to 96-well flexible plates. Culture medium was added to each well to provide a 1:10 dilution of the media sample. One hundred microliters of the diluted sample were transferred to each of the coated plates above. The plates were incubated covered for 1 hour at 37° C., then washed with PBS-TWEEN. The wells were then filled with 100 μL of goat anti-mouse IgG-HRP conjugate (Zymed Labs) diluted in PBS-TWEEN and the plates re-incubated for 1 hour. The plates were then washed again, and 100 μL of K Blue substrate (Neogen Corp) was added. This was allowed to develop for 5–15 minutes, the reaction being stopped by the addition of 100 μL of 1 N HCl. Color was read by means of a microplate reader at […] and collected by computer for analysis. A criterion for selection was binding to the methamphetamine-BSA conjugate 28 (for selection of NEAMP 1.3) or MDEA-BSA conjugate 36 (for screening for NEAMP 48.2 and NEAMP 62.1). Clones chosen were immediately subcloned and, when ready, retested. Stable subclones were expanded, frozen, and the spent media used to determine specificity using the cross-reactivity assay.
as §1

Row | Compound | % Cross-reactivity (antibody NEAMP 62.1) [%] | % Cross-reactivity (antibody NEAMP 48.2) [%] | % Cross-reactivity (antibody MDMA 2.1.1) [%] | % Cross-reactivity (antibody NEAMP 1.3) [%]
1 | CCC(N)Cc1ccc2c(c1)OCO2 (centres unmarked) [BDB, 3,4-methylenedioxyphenyl-2-butanamine] | 46 | 1 | 20.5 | 
2 | CCC(Cc1ccc2c(c1)OCO2)NC (centres unmarked) [MBDB, 3,4-methylenedioxyphenyl-N-methylbutanamine] | 13 | 6 | 26.1 | 3.9
3 | CC(N)Cc1ccc2c(c1)OCO2 (centres unmarked) [MDA, 3,4-methylenedioxyamphetamine] |  |  | 60.6 | 
4 | CCNC(C)Cc1ccc2c(c1)OCO2 (centres unmarked) [MDEA, 3,4-methylenedioxy-N-ethylamphetamine] | 100 | 100 | 204 | 100
5 | CNC(C)Cc1ccc2c(c1)OCO2 (centres unmarked) [MDMA, 3,4-methylenedioxy-N-methylamphetamine] | 4.0 | 5 | 100 | 22.5
6 | CCCNC(C)Cc1ccc2c(c1)OCO2 (centres unmarked) [MDPA, 3,4-methylenedioxy-N-propylamphetamine] |  |  | 365 | 
7 | CNCC(O)c1ccc(O)c(O)c1 (centres unmarked) [adrenaline] |  |  | 0 | 
8 | C[C@H](N)Cc1ccccc1 [d-AMP, d-amphetamine] |  | 0 | 0 | 6.4
9 | CN[C@@H](C)Cc1ccccc1 [d-MAMP, d-methamphetamine] | 0.5 |  | 0.65 | 19.7
10 | CCNC(C)Cc1ccccc1 (stereo not drawn) [d-N-ethylamphetamine] | 11 | 130 |  | 
11 | CN[C@@H](C)[C@@H](O)c1ccccc1 [d-pseudoephedrine] | 0.1 | 0.06 |  | 0.4
12 | CN[C@@H](C)[C@H](O)c1ccccc1 [ephedrine] |  |  | 0 | 
13 | C[C@@H](N)Cc1ccccc1 [l-AMP, l-amphetamine] |  |  | 0 | 6.6
14 | CN[C@H](C)Cc1ccccc1 [l-MAMP, l-methamphetamine] | 0.2 | 0.5 | 0 | 
15 | CN[C@@H](C)[C@H](O)c1ccccc1 [l-ephedrine] | 0.0 | 0 |  | 1.3
16 | NC[C@H](O)c1ccc(O)c(O)c1 [norepinephrine] |  |  | 0 | 
17 | C[C@H]1[C@H](c2ccccc2)OCCN1C [phendimetrazine] | 0.1 | 0.04 |  | 0.12
18 | CC(C)(N)Cc1ccccc1 [phentermine] |  |  | 0 | 
19 | CC(N)C(O)c1ccccc1 (centres unmarked) [phenylpropanolamine] |  |  | 0 | 
20 | CN[C@@H](C)[C@@H](O)c1ccccc1 [pseudoephedrine] |  |  | 0 | 
21 | c1cc2c(cc1[C@H]1OC[C@H]3[C@@H]1CO[C@@H]3c1ccc3c(c1)OCO3)OCO2 [sesamin] |  |  | 0 | 
22 | NCCc1ccc(O)cc1 [tyramine] |  |  | 0 | 
